Assay: recombinant UMI read abundance after kanamycin selection (control-corrected) (log10(CPM+1)); higher = more efficient recombination; extreme values may be limits of the assay; sequences stand for … in AGTGCAGAGAAAATCGGCCAGTTTTCTCTGCCTGCAGTCCGCATGCCGTGGGACCCCTTGGGTTCTAACCTGTTGCCTAGATTTATGCAGCGGACTGCCTTTCTCCCAAAGTGATAAACCGG…AGGTTGGTTTCACT; site = the 11-nt donor
In short: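 In Escherichia coli, a pool of donor and donor-binding-loop pairs, each with a 12-nt UMI, was tested for the IS621 bridge recombinase. Plating was on IPTG (0.07 mM) plus kanamycin, or without selection, in two replicates. Recombinant UMIs were amplified by PCR across the donor–target junction and sequenced, and counts were reported as log10(CPM+1) after averaging and control-derived scaling.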
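Further: IS621 bridge recombinase in Escherichia coli cells against a fixed T5 target plasmid.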

Sequence	recombinant UMI read abundance (log10)
TCAAACTCATGGACCGGTTTTCCCGGTAATCCGTATTTGCA (site TCAAACTCTTG)	1.55
TCAAACTCATGGACCGGTTTTCCCGGTAATCCGTATTTGCA (site TCACACTCTTG)	1.25
TCAAACTCATGGACCGGTTTTCCCGGTAATCCGTATTTGCA (site TCAGACTCTTG)	0
TCAAACTCATGGACCGGTTTTCCCGGTAATCCGTATTTGCA (site TCATACTCTTG)	1.92
TCAAAGCCATGGACCGGTTTTCCCGGTAATCCGTATTTGAT (site TCAAAGCCTAT)	0.324
TCAACCCCATGGACCGGTTTTCCCGGTAATCCGTATTTGTG (site TCAACCCCTCA)	0.00442
TCAAGTTCATGGACCGGTTTTCCCGGTAATCCGTATTTGTC (site TCAAGTTCTGA)	2
TCAATCTCATGGACCGGTTTTCCCGGTAATCCGTATTTGGT (site TCAATCTCTAC)	1.11
TCAATTGCATGGACCGGTTTTCCCGGTAATCCGTATTTGCG (site TCAATTGCTCG)	1.52
TCACCGCCATGGACCGGTTTTCCCGGTAATCCGTATTTGGG (site TCACCGCCTCC)	0.0301
TCACCTTCATGGACCGGTTTTCCCGGTAATCCGTATTTGTT (site TCACCTTCTAA)	0.00377
TCACGACCATGGACCGGTTTTCCCGGTAATCCGTATTTGCT (site TCACGACCTAG)	0
TCACGAGCATGGACCGGTTTTCCCGGTAATCCGTATTTGCC (site TCACGAGCTGG)	0.952
TCACGCGCATGGACCGGTTTTCCCGGTAATCCGTATTTGAA (site TCACGCGCTTT)	1.05
TCAGAATCATGGACCGGTTTTCCCGGTAATCCGTATTTGCG (site TCAGAATCTCG)	2.57
TCAGATACATGGACCGGTTTTCCCGGTAATCCGTATTTGCG (site TCAGAAACTCG)	0
TCAGATACATGGACCGGTTTTCCCGGTAATCCGTATTTGCG (site TCAGACACTCG)	0.812
TCAGATACATGGACCGGTTTTCCCGGTAATCCGTATTTGCG (site TCAGAGACTCG)	0.00723
TCAGATACATGGACCGGTTTTCCCGGTAATCCGTATTTGCG (site TCAGATACTCG)	1.33
TCAGCTACATGGACCGGTTTTCCCGGTAATCCGTATTTGAG (site TCAGCTACTCT)	0.878
TCAGCTCCATGGACCGGTTTTCCCGGTAATCCGTATTTGGC (site TCAGCTCCTGC)	0.823
TCAGGCGCATGGACCGGTTTTCCCGGTAATCCGTATTTGGT (site TCAGGCGCTAC)	0.385
TCAGGTCCATGGACCGGTTTTCCCGGTAATCCGTATTTGAT (site TCAGGTCCTAT)	1.68
TCAGTGTCATGGACCGGTTTTCCCGGTAATCCGTATTTGCT (site TCAGTGTCTAG)	2.58
TCATAATCATGGACCGGTTTTCCCGGTAATCCGTATTTGCA (site TCATAATCTTG)	2.3

Sequence	recombinant UMI read abundance (log10)
TCATAATCATGGACCGGTTTTCCCGGTAATCCGTATTTGCA (site TCATACTCTTG)	0.606
TCATAATCATGGACCGGTTTTCCCGGTAATCCGTATTTGCA (site TCATAGTCTTG)	1.06
TCATAATCATGGACCGGTTTTCCCGGTAATCCGTATTTGCA (site TCATATTCTTG)	0.925
TCATACTCATGGACCGGTTTTCCCGGTAATCCGTATTTGAA (site TCATACTCTTA)	0
TCATACTCATGGACCGGTTTTCCCGGTAATCCGTATTTGAA (site TCATACTCTTC)	0.0134
TCATACTCATGGACCGGTTTTCCCGGTAATCCGTATTTGAA (site TCATACTCTTG)	0
TCATACTCATGGACCGGTTTTCCCGGTAATCCGTATTTGAA (site TCATACTCTTT)	1.72
TCATATTCATGGACCGGTTTTCCCGGTAATCCGTATTTGCA (site TCATAATCTTG)	1.5
TCATATTCATGGACCGGTTTTCCCGGTAATCCGTATTTGCA (site TCATACTCTTG)	1.3
TCATATTCATGGACCGGTTTTCCCGGTAATCCGTATTTGCA (site TCATAGTCTTG)	0.00995
TCATATTCATGGACCGGTTTTCCCGGTAATCCGTATTTGCA (site TCATATTCTTG)	0.476
TCATCAACATGGACCGGTTTTCCCGGTAATCCGTATTTGGT (site TCATCAACTAC)	0.0136
TCATCCTCATGGACCGGTTTTCCCGGTAATCCGTATTTGCA (site TCATACTCTTG)	0.933
TCATCCTCATGGACCGGTTTTCCCGGTAATCCGTATTTGCA (site TCATCCTCTTG)	0.741
TCATCCTCATGGACCGGTTTTCCCGGTAATCCGTATTTGCA (site TCATGCTCTTG)	0.00381
TCATCCTCATGGACCGGTTTTCCCGGTAATCCGTATTTGCA (site TCATTCTCTTG)	0
TCATCCTCATGGACCGGTTTTCCCGGTAATCCGTATTTGGC (site TCATCCTCTGC)	0
TCATGCTCATGGACCGGTTTTCCCGGTAATCCGTATTTGCA (site TCATACTCTTG)	0.466
TCATGCTCATGGACCGGTTTTCCCGGTAATCCGTATTTGCA (site TCATCCTCTTG)	0
TCATGCTCATGGACCGGTTTTCCCGGTAATCCGTATTTGCA (site TCATGCTCTTG)	0.764
TCATGCTCATGGACCGGTTTTCCCGGTAATCCGTATTTGCA (site TCATTCTCTTG)	0
TCCAAATCATGGACCGGTTTTCCCGGTAATCCGTATTTGCC (site TCCAAATCTGG)	0
TCCAAATCATGGACCGGTTTTCCCGGTAATCCGTATTTGCC (site TCCAACTCTGG)	0
TCCAAATCATGGACCGGTTTTCCCGGTAATCCGTATTTGCC (site TCCAAGTCTGG)	0
TCCAAATCATGGACCGGTTTTCCCGGTAATCCGTATTTGCC (site TCCAATTCTGG)	0

Sequence	recombinant UMI read abundance (log10)
TCCAACGCATGGACCGGTTTTCCCGGTAATCCGTATTTGCG (site TCCAACGCTCG)	0.0127
TCCAACGCATGGACCGGTTTTCCCGGTAATCCGTATTTGCG (site TCCACCGCTCG)	0
TCCAACGCATGGACCGGTTTTCCCGGTAATCCGTATTTGCG (site TCCAGCGCTCG)	0
TCCAACGCATGGACCGGTTTTCCCGGTAATCCGTATTTGCG (site TCCATCGCTCG)	0.00881
TCCAAGGCATGGACCGGTTTTCCCGGTAATCCGTATTTGTC (site TCCAAGGCTGA)	0
TCCAATGCATGGACCGGTTTTCCCGGTAATCCGTATTTGCC (site TCCAATACTGG)	0
TCCAATGCATGGACCGGTTTTCCCGGTAATCCGTATTTGCC (site TCCAATCCTGG)	0
TCCAATGCATGGACCGGTTTTCCCGGTAATCCGTATTTGCC (site TCCAATGCTGG)	0
TCCAATGCATGGACCGGTTTTCCCGGTAATCCGTATTTGCC (site TCCAATTCTGG)	0
TCCAATTCATGGACCGGTTTTCCCGGTAATCCGTATTTGCA (site TCCAATTCTAG)	0
TCCAATTCATGGACCGGTTTTCCCGGTAATCCGTATTTGCA (site TCCAATTCTCG)	0
TCCAATTCATGGACCGGTTTTCCCGGTAATCCGTATTTGCA (site TCCAATTCTGG)	0
TCCAATTCATGGACCGGTTTTCCCGGTAATCCGTATTTGCA (site TCCAATTCTTG)	0
TCCAATTCATGGACCGGTTTTCCCGGTAATCCGTATTTGCG (site TCCAATTCTAG)	0
TCCAATTCATGGACCGGTTTTCCCGGTAATCCGTATTTGCG (site TCCAATTCTCG)	0
TCCAATTCATGGACCGGTTTTCCCGGTAATCCGTATTTGCG (site TCCAATTCTGG)	0
TCCAATTCATGGACCGGTTTTCCCGGTAATCCGTATTTGCG (site TCCAATTCTTG)	0
TCCACCACATGGACCGGTTTTCCCGGTAATCCGTATTTGCG (site TCCACCACTCG)	0.0102
TCCACCACATGGACCGGTTTTCCCGGTAATCCGTATTTGCG (site TCCACCCCTCG)	0.0154
TCCACCACATGGACCGGTTTTCCCGGTAATCCGTATTTGCG (site TCCACCGCTCG)	0
TCCACCACATGGACCGGTTTTCCCGGTAATCCGTATTTGCG (site TCCACCTCTCG)	0.00608
TCCACCGCATGGACCGGTTTTCCCGGTAATCCGTATTTGCG (site ACCACCGCTCG)	0.0347
TCCACCGCATGGACCGGTTTTCCCGGTAATCCGTATTTGCG (site CCCACCGCTCG)	0.0205
TCCACCGCATGGACCGGTTTTCCCGGTAATCCGTATTTGCG (site GCCACCGCTCG)	0.0147
TCCACCGCATGGACCGGTTTTCCCGGTAATCCGTATTTGCG (site TACACCGCTCG)	0.0145
